Measured values from patent US5721208A, “Glycopeptides a process for their preparation and their use” (Hoechst Aktiengesellschaft, priority 1991, dated 1998).

How the values were obtained:
[1] = system: Bact. fragilis 1313; assay: Minimum bacteriostatic inhibitory concentration, Agar dilution method; assay type: cell-based
[2] = system: Bact. vulgatus 1446; assay: as above; assay type: cell-based
[3] = system: Escherichia coli DC 2; assay: as above; assay type: cell-based
[4] = system: Staph. aureus 503; assay: as above; assay type: cell-based
[5] = system: Strept. pyogenes 77 A; assay: as above; assay type: cell-based
[6] = system: Staph. aureus SG 511; assay: as above; assay type: cell-based
[7] = system: Propioni acnes 6922; assay: as above; assay type: cell-based
[8] = system: Strept. pyogenes 308 A; assay: as above; assay type: cell-based
[9] = system: Staph. aureus 285; assay: as above; assay type: cell-based
[10] = system: Strept. faecium D; assay: as above; assay type: cell-based
[11] = system: Clostridium perfringens 194; settings: Agar dilution method
[12] = system: Peptostrept. anaerob. 932; assay: Minimum bacteriostatic inhibitory concentration, Agar dilution method; assay type: cell-based
[13] = system: Propioni acnes 6916; assay: as above; assay type: cell-based
[14] = system: Bact. fragilis 312; assay: as above; assay type: cell-based
[15] = system: Bact. fragilis 960; assay: as above; assay type: cell-based
[16] = system: Clostridium tetani ATCC 1940650; settings: Agar dilution method

## CC(C)CC(N)C(=O)NC1C(=O)NC(CC(N)=O)C(=O)NC2C(=O)NC3C(=O)NC(C(=O)NC(C(=O)O)c4cc(O)cc(O)c4-c4cc3ccc4O)C(OC3CC(C)(N)C(=O)C(C)O3)c3ccc(c(Cl)c3)Oc3cc2cc(c3OC2OC(CO)C(O)C(O)C2O)Oc2ccc(cc2Cl)C1O (centres unmarked) [Desmethylbalhimycin, desmethylbalhimycin]
[1]
  Minimum bacteriostatic inhibitory concentration: 50 micrograms per milliliter
[2]
  Minimum bacteriostatic inhibitory concentration: 50 micrograms per milliliter
[3]
  Minimum bacteriostatic inhibitory concentration: 10 micrograms per milliliter
[4]
  Minimum bacteriostatic inhibitory concentration: 0.05 micrograms per milliliter
[5]
  Minimum bacteriostatic inhibitory concentration: 0.05 micrograms per milliliter
[6]
  Minimum bacteriostatic inhibitory concentration: 0.1 micrograms per milliliter
[7]
  Minimum bacteriostatic inhibitory concentration: 0.4 micrograms per milliliter
[8]
  Minimum bacteriostatic inhibitory concentration: 0.05 micrograms per milliliter
[9]
  Minimum bacteriostatic inhibitory concentration: 0.1 micrograms per milliliter
[10]
  Minimum bacteriostatic inhibitory concentration: 0.2 micrograms per milliliter
[11]
  Minimum bacteriostatic inhibitory concentration: 0.2 micrograms per milliliter
[12]
  Minimum bacteriostatic inhibitory concentration: 25 micrograms per milliliter
[13]
  Minimum bacteriostatic inhibitory concentration: 0.8 micrograms per milliliter
[14]
  Minimum bacteriostatic inhibitory concentration: 100 micrograms per milliliter
[15]
  Minimum bacteriostatic inhibitory concentration: 25 micrograms per milliliter
[16]
  Minimum bacteriostatic inhibitory concentration: 50 micrograms per milliliter

## CNC(CC(C)C)C(=O)NC1C(=O)NC(CC(N)=O)C(=O)NC2C(=O)NC3C(=O)NC(C(=O)NC(C(=O)O)c4cc(O)cc(O)c4-c4cc3ccc4O)C(OC3CC4(C)NC(=O)NC4(O)C(C)O3)c3ccc(c(Cl)c3)Oc3cc2cc(c3OC2OC(CO)C(O)C(O)C2O)Oc2ccc(cc2Cl)C1O (centres unmarked) [Ureidobalhimycin, ureidobalhimycin]
[1]
  Minimum bacteriostatic inhibitory concentration: 25 micrograms per milliliter
[2]
  Minimum bacteriostatic inhibitory concentration: 50 micrograms per milliliter
[3]
  Minimum bacteriostatic inhibitory concentration: > 100 micrograms per milliliter
[4]
  Minimum bacteriostatic inhibitory concentration: 1.5 micrograms per milliliter
[5]
  Minimum bacteriostatic inhibitory concentration: 0.8 micrograms per milliliter
[6]
  Minimum bacteriostatic inhibitory concentration: 0.8 micrograms per milliliter
[7]
  Minimum bacteriostatic inhibitory concentration: 1.5 micrograms per milliliter
[8]
  Minimum bacteriostatic inhibitory concentration: 0.8 micrograms per milliliter
[9]
  Minimum bacteriostatic inhibitory concentration: 1.5 micrograms per milliliter
[10]
  Minimum bacteriostatic inhibitory concentration: 1.5 micrograms per milliliter
[11]
  Minimum bacteriostatic inhibitory concentration: 0.4 micrograms per milliliter
[12]
  Minimum bacteriostatic inhibitory concentration: 6.2 micrograms per milliliter
[13]
  Minimum bacteriostatic inhibitory concentration: 0.8 micrograms per milliliter
[14]
  Minimum bacteriostatic inhibitory concentration: 25 micrograms per milliliter
[15]
  Minimum bacteriostatic inhibitory concentration: 25 micrograms per milliliter
[16]
  Minimum bacteriostatic inhibitory concentration: 12.5 micrograms per milliliter

## balhimycin R
[1]
  Minimum bacteriostatic inhibitory concentration: > 100 micrograms per milliliter
[2]
  Minimum bacteriostatic inhibitory concentration: > 100 micrograms per milliliter
[3]
  Minimum bacteriostatic inhibitory concentration: 50 micrograms per milliliter
[4]
  Minimum bacteriostatic inhibitory concentration: 0.2 micrograms per milliliter
[5]
  Minimum bacteriostatic inhibitory concentration: 0.2 micrograms per milliliter
[6]
  Minimum bacteriostatic inhibitory concentration: 0.2 micrograms per milliliter
[7]
  Minimum bacteriostatic inhibitory concentration: 3.1 micrograms per milliliter
[8]
  Minimum bacteriostatic inhibitory concentration: 0.2 micrograms per milliliter
[9]
  Minimum bacteriostatic inhibitory concentration: 0.8 micrograms per milliliter
[10]
  Minimum bacteriostatic inhibitory concentration: 0.4 micrograms per milliliter
[12]
  Minimum bacteriostatic inhibitory concentration: 100 micrograms per milliliter
[13]
  Minimum bacteriostatic inhibitory concentration: 6.2 micrograms per milliliter
[14]
  Minimum bacteriostatic inhibitory concentration: > 100 micrograms per milliliter
[15]
  Minimum bacteriostatic inhibitory concentration: > 100 micrograms per milliliter
[16]
  Minimum bacteriostatic inhibitory concentration: 100 micrograms per milliliter

## balhimycin V
[3]
  Minimum bacteriostatic inhibitory concentration: > 100 micrograms per milliliter
[4]
  Minimum bacteriostatic inhibitory concentration: 0.1 micrograms per milliliter
[5]
  Minimum bacteriostatic inhibitory concentration: 0.05 micrograms per milliliter
[6]
  Minimum bacteriostatic inhibitory concentration: 0.4 micrograms per milliliter
[8]
  Minimum bacteriostatic inhibitory concentration: 0.05 micrograms per milliliter
[9]
  Minimum bacteriostatic inhibitory concentration: 0.4 micrograms per milliliter
[10]
  Minimum bacteriostatic inhibitory concentration: 0.2 micrograms per milliliter

## CC(C)C[C@H](C(=O)N[C@H]1C(=O)NC(CC(N)=O)C(=O)N[C@H]2C(=O)N[C@H]3C(=O)N[C@H](C(=O)N[C@@H](C(=O)O)c4cc(O)cc(O)c4-c4cc3ccc4O)[C@H](O[C@H]3C[C@](C)(N)C(=O)[C@H](C)O3)c3ccc(c(Cl)c3)Oc3cc2cc(c3O[C@@H]2O[C@H](CO)[C@@H](O)[C@H](O)[C@H]2O)Oc2ccc(cc2Cl)[C@H]1O)N(C)C (some centres unmarked) [Methylbalhimycin, methylbalhimycin]
[1]
  Minimum bacteriostatic inhibitory concentration: 50 micrograms per milliliter
[2]
  Minimum bacteriostatic inhibitory concentration: > 100 micrograms per milliliter
[3]
  Minimum bacteriostatic inhibitory concentration: 25 micrograms per milliliter
[4]
  Minimum bacteriostatic inhibitory concentration: 0.4 micrograms per milliliter
[5]
  Minimum bacteriostatic inhibitory concentration: 0.4 micrograms per milliliter
[6]
  Minimum bacteriostatic inhibitory concentration: 0.4 micrograms per milliliter
[7]
  Minimum bacteriostatic inhibitory concentration: 0.4 micrograms per milliliter
[8]
  Minimum bacteriostatic inhibitory concentration: 0.4 micrograms per milliliter
[9]
  Minimum bacteriostatic inhibitory concentration: 0.4 micrograms per milliliter
[10]
  Minimum bacteriostatic inhibitory concentration: 0.8 micrograms per milliliter
[11]
  Minimum bacteriostatic inhibitory concentration: 1.5 micrograms per milliliter
[12]
  Minimum bacteriostatic inhibitory concentration: 0.8 micrograms per milliliter
[13]
  Minimum bacteriostatic inhibitory concentration: 0.4 micrograms per milliliter
[14]
  Minimum bacteriostatic inhibitory concentration: 100 micrograms per milliliter
[15]
  Minimum bacteriostatic inhibitory concentration: 100 micrograms per milliliter
[16]
  Minimum bacteriostatic inhibitory concentration: 3.1 micrograms per milliliter

## CNC(CC(C)C)C(=O)NC1C(=O)NC(CC(N)=O)C(=O)NC2C(=O)NC3C(=O)NC(C(=O)NC(C(=O)O)c4cc(O)cc(O)c4-c4cc3ccc4O)C(OC3CC(C)(N)C(=O)C(C)O3)c3ccc(c(Cl)c3)Oc3cc2cc(c3O)Oc2ccc(cc2Cl)C1O (centres unmarked) [Desglucobalhimycin, desglucobalhimycin]
[1]
  Minimum bacteriostatic inhibitory concentration: 25 micrograms per milliliter
[2]
  Minimum bacteriostatic inhibitory concentration: > 100 micrograms per milliliter
[3]
  Minimum bacteriostatic inhibitory concentration: > 100 micrograms per milliliter
[4]
  Minimum bacteriostatic inhibitory concentration: 0.1 micrograms per milliliter
[5]
  Minimum bacteriostatic inhibitory concentration: 0.1 micrograms per milliliter
[6]
  Minimum bacteriostatic inhibitory concentration: 0.2 micrograms per milliliter
[7]
  Minimum bacteriostatic inhibitory concentration: 0.2 micrograms per milliliter
[8]
  Minimum bacteriostatic inhibitory concentration: 0.1 micrograms per milliliter
[9]
  Minimum bacteriostatic inhibitory concentration: 0.2 micrograms per milliliter
[10]
  Minimum bacteriostatic inhibitory concentration: 0.2 micrograms per milliliter
[11]
  Minimum bacteriostatic inhibitory concentration: 0.1 micrograms per milliliter
[12]
  Minimum bacteriostatic inhibitory concentration: 0.4 micrograms per milliliter
[13]
  Minimum bacteriostatic inhibitory concentration: 0.2 micrograms per milliliter
[14]
  Minimum bacteriostatic inhibitory concentration: 25 micrograms per milliliter
[15]
  Minimum bacteriostatic inhibitory concentration: 25 micrograms per milliliter
[16]
  Minimum bacteriostatic inhibitory concentration: 0.4 micrograms per milliliter

## CC(C)CC(N)C(=O)NC1C(=O)NC(CC(N)=O)C(=O)NC2C(=O)NC3C(=O)NC(C(=O)NC(C(=O)O)c4cc(O)cc(O)c4-c4cc3ccc4O)C(OC3CC(C)(N)C(=O)C(C)O3)c3ccc(c(Cl)c3)Oc3cc2cc(c3O)Oc2ccc(cc2Cl)C1O (centres unmarked) [Desmethyl-desglucobalhimycin, desmethyl-desglucobalhimycin]
[1]
  Minimum bacteriostatic inhibitory concentration: 50 micrograms per milliliter
[2]
  Minimum bacteriostatic inhibitory concentration: > 100 micrograms per milliliter
[3]
  Minimum bacteriostatic inhibitory concentration: > 100 micrograms per milliliter
[4]
  Minimum bacteriostatic inhibitory concentration: 0.1 micrograms per milliliter
[5]
  Minimum bacteriostatic inhibitory concentration: 0.1 micrograms per milliliter
[6]
  Minimum bacteriostatic inhibitory concentration: 0.2 micrograms per milliliter
[7]
  Minimum bacteriostatic inhibitory concentration: 0.1 micrograms per milliliter
[8]
  Minimum bacteriostatic inhibitory concentration: 0.1 micrograms per milliliter
[9]
  Minimum bacteriostatic inhibitory concentration: 0.2 micrograms per milliliter
[10]
  Minimum bacteriostatic inhibitory concentration: 0.2 micrograms per milliliter
[11]
  Minimum bacteriostatic inhibitory concentration: 0.1 micrograms per milliliter
[12]
  Minimum bacteriostatic inhibitory concentration: 0.2 micrograms per milliliter
[13]
  Minimum bacteriostatic inhibitory concentration: 0.2 micrograms per milliliter
[14]
  Minimum bacteriostatic inhibitory concentration: 50 micrograms per milliliter
[15]
  Minimum bacteriostatic inhibitory concentration: 25 micrograms per milliliter
